Numbers after ± are expanded uncertainties.
Assay: xn = mol fraction of the nth substance listed
Conditions: Liquid, Vibrating tube method

OCCO [1,2-ethanediol] + C[S+](C)[O-]
mass density [kg/m3]
Conditions	101 kPa	10000 kPa	25000 kPa	50000 kPa	75000 kPa	100000 kPa
278.15 K, x2 = 0	1123.77 ± 0.33	1127.65 ± 0.38	1133.2 ± 0.47	1141.71 ± 0.62	1149.55 ± 0.78	1157.24 ± 0.97
278.15 K, x2 = 0.00452	1123.78 ± 0.33	–	–	–	–	–
278.15 K, x2 = 0.00721	1123.81 ± 0.33	–	–	–	–	–
278.15 K, x2 = 0.0181	–	1127.79 ± 0.38	1133.35 ± 0.47	1141.89 ± 0.62	1149.87 ± 0.79	1157.59 ± 0.97
278.15 K, x2 = 0.01811	1123.89 ± 0.33	–	–	–	–	–
278.15 K, x2 = 0.03033	1123.98 ± 0.33	–	–	–	–	–
278.15 K, x2 = 0.04027	1124.05 ± 0.33	–	–	–	–	–
278.15 K, x2 = 0.0403	–	1127.98 ± 0.38	1133.57 ± 0.47	1142.21 ± 0.62	1150.25 ± 0.79	1158.01 ± 0.97
278.15 K, x2 = 0.07007	1124.18 ± 0.33	–	–	–	–	–
278.15 K, x2 = 0.0701	–	1128.13 ± 0.38	1133.74 ± 0.47	1142.44 ± 0.62	1150.68 ± 0.79	1158.48 ± 0.97
278.15 K, x2 = 0.1097	1124.31 ± 0.33	1128.3 ± 0.38	1133.94 ± 0.47	1142.73 ± 0.62	1151.17 ± 0.79	1159.03 ± 0.97
278.15 K, x2 = 0.1408	1124.41 ± 0.33	1128.43 ± 0.38	1134.12 ± 0.47	1142.98 ± 0.62	1151.53 ± 0.79	1159.45 ± 0.98
278.15 K, x2 = 0.1934	1124.41 ± 0.33	1128.44 ± 0.38	1134.19 ± 0.47	1143.24 ± 0.62	1151.93 ± 0.79	1159.97 ± 0.98
278.15 K, x2 = 0.234	1124.34 ± 0.33	1128.39 ± 0.38	1134.22 ± 0.47	1143.4 ± 0.62	1152.14 ± 0.79	1160.33 ± 0.98
278.15 K, x2 = 0.3244	1124.05 ± 0.33	1128.13 ± 0.38	1134.17 ± 0.47	1143.66 ± 0.62	1152.48 ± 0.8	1160.9 ± 0.98
278.15 K, x2 = 0.3764	1123.76 ± 0.33	1127.85 ± 0.38	1134.01 ± 0.47	1143.73 ± 0.62	1152.55 ± 0.8	1161.23 ± 0.98
278.15 K, x2 = 0.4429	1123.28 ± 0.33	1127.37 ± 0.38	1133.7 ± 0.47	1143.69 ± 0.62	1152.53 ± 0.8	1161.47 ± 0.99
278.15 K, x2 = 0.4892	1122.88 ± 0.33	1126.97 ± 0.38	1133.44 ± 0.47	1143.64 ± 0.62	1152.45 ± 0.8	1161.74 ± 0.99
278.15 K, x2 = 0.5654	1122.14 ± 0.33	1126.24 ± 0.38	1132.95 ± 0.47	1143.45 ± 0.62	1152.24 ± 0.79	1162 ± 0.99
278.15 K, x2 = 0.6298	1121.26 ± 0.33	–	–	–	–	–
278.15 K, x2 = 0.6946	1120.52 ± 0.33	–	–	–	–	–
288.15 K, x2 = 0	–	1120.87 ± 0.37	1126.51 ± 0.45	1135.26 ± 0.6	1143.65 ± 0.76	1151.55 ± 0.94
288.15 K, x2 = 0.0181	–	1120.9 ± 0.37	1126.66 ± 0.45	1135.53 ± 0.6	1143.78 ± 0.76	1151.74 ± 0.94
288.15 K, x2 = 0.0403	–	1121 ± 0.37	1126.79 ± 0.45	1135.69 ± 0.6	1144 ± 0.76	1152.03 ± 0.94
288.15 K, x2 = 0.0701	–	1121.06 ± 0.37	1126.89 ± 0.45	1135.92 ± 0.6	1144.4 ± 0.77	1152.42 ± 0.94
288.15 K, x2 = 0.1097	–	1121.09 ± 0.37	1126.97 ± 0.45	1136.1 ± 0.6	1144.77 ± 0.77	1152.92 ± 0.95
288.15 K, x2 = 0.1408	–	1121.09 ± 0.37	1127.02 ± 0.45	1136.28 ± 0.6	1145.05 ± 0.77	1153.32 ± 0.95
288.15 K, x2 = 0.1934	–	1121 ± 0.37	1127.02 ± 0.45	1136.35 ± 0.6	1145.29 ± 0.77	1153.81 ± 0.95
288.15 K, x2 = 0.234	–	1120.87 ± 0.37	1127.02 ± 0.45	1136.51 ± 0.6	1145.4 ± 0.77	1154.03 ± 0.95
288.15 K, x2 = 0.3244	1115.95 ± 0.32	1120.42 ± 0.37	1126.73 ± 0.45	1136.43 ± 0.6	1145.62 ± 0.77	1154.61 ± 0.95
288.15 K, x2 = 0.3764	1115.49 ± 0.32	1119.99 ± 0.37	1126.45 ± 0.45	1136.4 ± 0.6	1145.68 ± 0.77	1154.78 ± 0.95
288.15 K, x2 = 0.4429	1114.8 ± 0.32	1119.41 ± 0.37	1126.08 ± 0.45	1136.29 ± 0.6	1145.64 ± 0.77	1154.83 ± 0.95
288.15 K, x2 = 0.4892	1114.25 ± 0.32	1118.92 ± 0.37	1125.69 ± 0.45	1136.07 ± 0.6	1145.55 ± 0.77	1154.79 ± 0.95
288.15 K, x2 = 0.5654	1113.29 ± 0.32	1118.05 ± 0.37	1125.01 ± 0.45	1135.67 ± 0.6	1145.31 ± 0.77	1154.87 ± 0.95
288.15 K, x2 = 0.6298	1112.27 ± 0.32	–	–	–	–	–
288.15 K, x2 = 0.6946	1111.32 ± 0.32	1116.19 ± 0.37	1123.4 ± 0.45	1134.56 ± 0.6	1144.55 ± 0.77	1154.68 ± 0.95
288.15 K, x2 = 0.8142	1109.13 ± 0.32	–	–	–	–	–
298.15 K, x2 = 0	–	1113.97 ± 0.36	1119.78 ± 0.44	1128.78 ± 0.58	1137.41 ± 0.74	–
298.15 K, x2 = 0.0181	–	1114 ± 0.36	1119.85 ± 0.44	1128.92 ± 0.58	1137.62 ± 0.74	–
298.15 K, x2 = 0.0403	–	1114.01 ± 0.36	1119.92 ± 0.44	1129.12 ± 0.58	1137.93 ± 0.74	–
298.15 K, x2 = 0.0701	–	1114.01 ± 0.36	1119.95 ± 0.44	1129.25 ± 0.58	1138.31 ± 0.74	–
298.15 K, x2 = 0.1097	–	1113.67 ± 0.36	1119.88 ± 0.44	1129.29 ± 0.58	–	–
298.15 K, x2 = 0.1408	1109.42 ± 0.32	1113.44 ± 0.36	1119.71 ± 0.44	1129.45 ± 0.58	–	–
298.15 K, x2 = 0.1934	1109.06 ± 0.32	1112.87 ± 0.36	1119.4 ± 0.44	1129.48 ± 0.58	–	–
298.15 K, x2 = 0.234	1108.72 ± 0.32	1112.42 ± 0.36	1119.03 ± 0.44	1129.27 ± 0.58	–	–
298.15 K, x2 = 0.3244	1107.82 ± 0.32	1111.54 ± 0.36	1118.39 ± 0.44	1128.95 ± 0.58	–	–
298.15 K, x2 = 0.3764	1107.21 ± 0.32	1110.95 ± 0.36	1117.96 ± 0.44	1128.79 ± 0.58	–	–
298.15 K, x2 = 0.4429	1106.29 ± 0.31	–	–	1128.43 ± 0.58	–	–
298.15 K, x2 = 0.4892	1105.6 ± 0.31	1109.49 ± 0.36	–	1128.14 ± 0.58	–	–
298.15 K, x2 = 0.5654	1104.44 ± 0.31	1108.61 ± 0.36	1116.04 ± 0.43	1127.67 ± 0.58	–	–
298.15 K, x2 = 0.6946	1102.13 ± 0.31	1106.65 ± 0.36	1114.43 ± 0.43	1126.58 ± 0.58	–	–
298.15 K, x2 = 0.8142	1099.6 ± 0.31	1104.54 ± 0.35	1112.6 ± 0.43	1125.27 ± 0.57	–	–
298.15 K, x2 = 0.867	1098.37 ± 0.31	–	–	–	–	–
298.15 K, x2 = 0.9266	1097.09 ± 0.31	–	1110.81 ± 0.43	1123.79 ± 0.57	–	–
298.15 K, x2 = 0.9836	–	1101.52 ± 0.35	–	1123.02 ± 0.57	–	–
298.15 K, x2 = 0.9968	1095.42 ± 0.31	–	–	–	–	–

From the NIST ThermoML archive (doi:10.1021/je100089s)
